Where two headings read alike, the source gives them in different places.
Experiments:
Format in all cases: cell-based
[1] = test system: SARS-CoV-2 (B1 variant); experiment: microbe, parasite or virus in culture; conditions: Severe acute respiratory syndrome coronavirus 2, 48 h
[2] = test system: SARS-CoV-2_M:L90W
[3] = test system: SARS-CoV-2 Omicron BA.1 variant; experiment: microbe, parasite or virus in culture; conditions: Severe acute respiratory syndrome coronavirus 2, SARS-CoV-2 Omicron B.1.1.529
[4] = test system: SARS-CoV-2_M:M91K
[5] = test system: SARS-CoV-2_M:A85S
[6] = test system: SARS-CoV-2_M:Q185K
[7] = test system: SARS-CoV-2_M:W55F
[8] = test system: SARS-CoV-2_M:L29F
[9] = test system: SARS-CoV-2 M:A98D
[10] = test system: SARS-CoV-2 Delta variant; experiment: microbe, parasite or virus in culture; conditions: Severe acute respiratory syndrome coronavirus 2; SARS-CoV-2 Delta B.1.617.1
[11] = read-out: EC50, production of viral RNA
[12] = read-out: EC90, production of viral RNA

Structure (SMILES) | EC50 ([1]; read-out: EC50, RNA copy numbers (printed in Fig. 1c)) | EC50 [1, 11] | EC90 ([1]; read-out: EC90, RNA copy numbers (printed in Fig. 1c)) | EC90 [1, 12] | Potency shift (EC50 fold change ± SD vs recombinant WT virus) [2] | EC50 [3] | Potency shift (EC50 fold change ± SD vs recombinant WT virus) [4] | Potency shift (EC50 fold change ± SD vs recombinant WT virus) [5] | Potency shift (EC50 fold change ± SD vs recombinant WT virus) [6] | Potency shift (EC50 fold change ± SD vs recombinant WT virus) [7] | Potency shift (EC50 fold change ± SD vs recombinant WT virus) [8] | Potency shift (EC50 fold change ± SD vs recombinant WT virus) [9] | EC50 [10]
CC(C)(C)[C@H](NC(=O)C(F)(F)F)C(=O)N1C[C@H]2[C@@H]([C@H]1C(=O)N[C@H](C#N)C[C@@H]1CCNC1=O)C2(C)C [nirmatrelvir, reference compound] | 109 nM | 109 ± 55.6 nM | 268 nM | 268 ± 112 nM | – | – | – | – | – | – | – | – | –
C[C@H]1Cn2ncc(C(=O)Nc3cccc(C#N)c3)c2C(=O)N1c1ccc(C(F)(F)c2ccccc2)cc1 [JNJ-9676, (S)-N-(3-cyanophenyl)-5-(4-(difluoro(phenyl)methyl)phenyl)-6-methyl-4-oxo-4,5,6,7-tetrahydropyrazolo[1,5-a]pyrazine-3-carboxamide] | – | 94 ± 3.4 nM | – | 132 ± 36.7 nM | 2.47 ± 1.48 fold change | 26 nM | 10.03 ± 3.28 fold change | 0.64 ± 0.21 fold change | 5.55 ± 1.92 fold change | 0.62 ± 0.26 fold change | 5.57 ± 0.42 fold change | 2.02 ± 0.58 fold change | 14 nM
